In US20250060368A1, “METHODS OF DETECTING AND TREATING IMMUNOTHERAPY-RESISTANT CANCER” (Washington University, priority 2022, published 2025):

Experiments:
B-ALL [1] = test: Clinical case of B-ALL patient treated with blinatumomab and KTE-X19 (ZUMA-3); type: in vivo, human; settings: person with B-ALL, CD19ΔTyr260
Protocol: A person with B-ALL was treated with chemotherapy followed by 2 cycles of blinatumomab as initial therapy. […] B lymphoblasts. Using targeted RNA sequencing, an in-frame deletion within the extracellular domain of CD19 at […]) was identified (FIG. 6A).

B-ALL [2] = settings: patients receiving blinatumomab or anti-CD19 CAR T for B-ALL; cited from earlier work

Substance: blinatumomab: CD19 bispecific T-cell engager approved for R/R B-ALL
- Clinical response (B-ALL [1]): relapsed after the second cycle
- Patients in whom emergence of CD19-negative clones is a cause of relapse (B-ALL [2]): 10%-20%
